Reference: PubChem BioAssay (NCI)
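A five-concentration, 48-hour dose response in 96-well plates underlies each endpoint, interpolated linearly between surrounding concentrations. Definition used: TGI = concentration required for complete inhibition of growth.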

Legend:
Experiment in all cases: NCI-60 cell line screen, 48 h
[1] = system: HCT-116 colon
[2] = system: CCRF-CEM leukemia
[3] = system: SR leukemia
[4] = system: U251 CNS
[5] = system: DMS 273 small cell lung
[6] = system: ACHN renal
[7] = system: SNB-78 CNS
[8] = system: UACC-62 melanoma
[9] = system: SF-268 CNS
[10] = system: RPMI-8226 leukemia
[11] = system: SK-MEL-5 melanoma
[12] = system: HOP-92 NSCLC
[13] = system: HT29 colon
[14] = system: MALME-3M melanoma
[15] = system: TK-10 renal
[16] = system: SN12C renal
[17] = system: XF 498 CNS
[18] = system: HOP-18 NSCLC
[19] = system: KM12 colon
[20] = system: OVCAR-4 ovarian
[21] = system: SF-539 CNS
[22] = system: RXF 393 renal
[23] = system: COLO 205 colon
[24] = system: SK-MEL-2 melanoma
[25] = system: SW-620 colon
[26] = system: 786-0 renal
[27] = system: UACC-257 melanoma
[28] = system: HOP-62 NSCLC
[29] = system: NCI-H23 lung
[30] = system: SNB-75 CNS
[31] = system: SK-MEL-28 melanoma
[32] = system: SF-295 CNS
[33] = system: HCT-15 colon
[34] = system: M19-MEL melanoma
[35] = system: LOX IMVI melanoma
[36] = system: EKVX NSCLC
[37] = system: A549 NSCLC
[38] = system: CAKI-1 renal
[39] = system: OVCAR-3 ovarian
[40] = system: OVCAR-5 ovarian
[41] = system: OVCAR-8 ovarian
[42] = system: IGROV1 ovarian
[43] = system: SNB-19 CNS
[44] = system: NCI-H460 lung
[45] = system: K-562 leukemia
[46] = system: DMS 114 small cell lung
[47] = system: A498 renal
[48] = system: KM20L2 colon
[49] = system: DLD-1 colon
[50] = system: UO-31 renal
[51] = system: M14 melanoma
[52] = system: MDA-N
[53] = system: HCC-2998 colon
[54] = system: NCI-H522 lung
[55] = system: LXFL 529 NSCLC
[56] = system: HL-60(TB) leukemia
[57] = system: PC-3 prostate
[58] = system: DU-145 prostate
[59] = system: HS 578T breast
[60] = system: NCI/ADR-RES ovarian
[61] = system: MCF7 breast
[62] = system: BT-549 breast
[63] = system: MDA-MB-435
[64] = system: SK-OV-3 ovarian
[65] = system: MOLT-4 leukemia
[66] = system: MDA-MB-231 breast
[67] = system: NCI-H226 lung

Q: Which TGI [1] does the source give for COc1ccc(C(=O)NCCC2=CCCCC2)cc1 here?
A: > 100 µM

Q: And the TGI [2]?
A: > 100 µM

Q: And the TGI [3]?
A: > 100 µM

Q: And the TGI [4]?
A: > 100 µM

Q: What about the TGI [5] of the same molecule?
A: > 100 µM

Q: What about the TGI [6] of the same molecule?
A: > 100 µM

Q: What about the TGI [7] of the same molecule?
A: > 100 µM

Q: What about the TGI [8] of the same molecule?
A: > 100 µM

Q: And the TGI [9]?
A: > 100 µM

Q: What about the TGI [10] of the same molecule?
A: > 100 µM

Q: And the TGI [11]?
A: > 100 µM

Q: What about the TGI [12] of the same molecule?
A: > 100 µM

Q: What about the TGI [13] of the same molecule?
A: > 100 µM

Q: And the TGI [14]?
A: > 100 µM

Q: What about the TGI [15] of the same molecule?
A: > 100 µM

Q: And the TGI [16]?
A: > 100 µM

Q: And the TGI [17]?
A: > 100 µM

Q: And the TGI [18]?
A: > 100 µM

Q: What about the TGI [19] of the same molecule?
A: > 100 µM

Q: And the TGI [20]?
A: > 100 µM

Q: And the TGI [21]?
A: > 100 µM

Q: What about the TGI [22] of the same molecule?
A: > 100 µM

Q: What about the TGI [23] of the same molecule?
A: > 100 µM

Q: What about the TGI [24] of the same molecule?
A: > 100 µM

Q: What about the TGI [25] of the same molecule?
A: > 100 µM

Q: What about the TGI [26] of the same molecule?
A: > 100 µM

Q: And the TGI [27]?
A: > 100 µM

Q: And the TGI [28]?
A: > 100 µM

Q: What about the TGI [29] of the same molecule?
A: > 100 µM

Q: And the TGI [30]?
A: > 100 µM

Q: What about the TGI [31] of the same molecule?
A: > 100 µM

Q: And the TGI [32]?
A: > 100 µM

Q: And the TGI [33]?
A: > 100 µM

Q: And the TGI [34]?
A: > 100 µM

Q: What about the TGI [35] of the same molecule?
A: > 100 µM

Q: And the TGI [36]?
A: > 100 µM

Q: And the TGI [37]?
A: > 100 µM

Q: And the TGI [38]?
A: > 100 µM

Q: What about the TGI [39] of the same molecule?
A: > 100 µM

Q: What about the TGI [40] of the same molecule?
A: > 100 µM

Q: And the TGI [41]?
A: > 100 µM

Q: And the TGI [42]?
A: > 100 µM

Q: What about the TGI [43] of the same molecule?
A: > 100 µM

Q: What about the TGI [44] of the same molecule?
A: > 100 µM

Q: And the TGI [45]?
A: > 100 µM

Q: And the TGI [46]?
A: > 100 µM

Q: What about the TGI [47] of the same molecule?
A: > 100 µM

Q: What about the TGI [48] of the same molecule?
A: > 100 µM

Q: What about the TGI [49] of the same molecule?
A: > 100 µM

Q: COc1ccc(-c2nc(N)n(C)c2SSc2c(-c3ccc(OC)cc3)nc(N)n2C)cc1 was tested. Which TGI [1] did it give?
A: 7.49 µM

Q: And the TGI [2]?
A: 11.9 µM

Q: And the TGI [3]?
A: 5.48 µM

Q: And the TGI [50]?
A: 11.9 µM

Q: And the TGI [4]?
A: 26.2 µM

Q: What about the TGI [51] of the same molecule?
A: 4.87 µM

Q: And the TGI [52]?
A: 6 µM

Q: What about the TGI [53] of the same molecule?
A: 31.8 µM

Q: What about the TGI [54] of the same molecule?
A: 3.57 µM

Q: And the TGI [5]?
A: 13.4 µM

Q: What about the TGI [55] of the same molecule?
A: 3.4 µM

Q: What about the TGI [6] of the same molecule?
A: 8.3 µM

Q: And the TGI [56]?
A: 14.1 µM

Q: What about the TGI [8] of the same molecule?
A: 10 µM

Q: And the TGI [9]?
A: 33.7 µM

Q: What about the TGI [10] of the same molecule?
A: 7.46 µM

Q: What about the TGI [11] of the same molecule?
A: 4.15 µM

Q: And the TGI [12]?
A: 6.21 µM

Q: And the TGI [13]?
A: 28.5 µM

Q: And the TGI [57]?
A: 18.2 µM

Q: What about the TGI [14] of the same molecule?
A: 22.2 µM

Q: What about the TGI [15] of the same molecule?
A: 27.6 µM

Q: What about the TGI [16] of the same molecule?
A: 25.5 µM

Q: And the TGI [17]?
A: 4.92 µM

Q: And the TGI [18]?
A: 17.8 µM

Q: What about the TGI [58] of the same molecule?
A: 31.4 µM

Q: And the TGI [19]?
A: 26.7 µM

Q: What about the TGI [20] of the same molecule?
A: 15.9 µM

Q: And the TGI [21]?
A: 13.4 µM

Q: What about the TGI [22] of the same molecule?
A: 6.63 µM

Q: And the TGI [23]?
A: 4.76 µM

Q: And the TGI [24]?
A: 29.5 µM

Q: What about the TGI [25] of the same molecule?
A: 5.09 µM

Q: What about the TGI [26] of the same molecule?
A: 29.2 µM

Q: What about the TGI [27] of the same molecule?
A: 14.5 µM

Q: What about the TGI [28] of the same molecule?
A: 32.1 µM

Q: And the TGI [29]?
A: 17.8 µM

Q: What about the TGI [30] of the same molecule?
A: 24.8 µM

Q: And the TGI [59]?
A: 29.7 µM

Q: And the TGI [60]?
A: 35.1 µM

Q: And the TGI [31]?
A: 10.2 µM

Q: What about the TGI [32] of the same molecule?
A: 25.5 µM

Q: And the TGI [33]?
A: 8.73 µM

Q: What about the TGI [34] of the same molecule?
A: 4.67 µM

Q: And the TGI [61]?
A: 23 µM

Q: And the TGI [35]?
A: 4.22 µM

Q: What about the TGI [36] of the same molecule?
A: 44.3 µM

Q: And the TGI [62]?
A: 5.54 µM

Q: What about the TGI [37] of the same molecule?
A: 45.4 µM

Q: What about the TGI [38] of the same molecule?
A: 24.6 µM

Q: And the TGI [63]?
A: 13.9 µM

Q: And the TGI [64]?
A: 32.6 µM

Q: And the TGI [39]?
A: 21.2 µM

Q: And the TGI [40]?
A: 14.5 µM

Q: What about the TGI [41] of the same molecule?
A: 16.3 µM

Q: And the TGI [65]?
A: 5.1 µM

Q: What about the TGI [66] of the same molecule?
A: 19.7 µM

Q: What about the TGI [42] of the same molecule?
A: 29.4 µM

Q: And the TGI [43]?
A: 27.2 µM

Q: What about the TGI [67] of the same molecule?
A: 37.3 µM

Q: And the TGI [44]?
A: 42.5 µM

Q: And the TGI [45]?
A: 15.5 µM

Q: And the TGI [46]?
A: 4.61 µM

Q: And the TGI [47]?
A: 35.7 µM

Q: What about the TGI [48] of the same molecule?
A: 30.9 µM

Q: And the TGI [49]?
A: 15.3 µM

Q: Which results are given for C1OC1C1CO1 (centres undefined)?
A: TGI [1]: > 100 µM; TGI [2]: > 100 µM; TGI [3]: > 100 µM; TGI [50]: > 100 µM; TGI [4]: > 100 µM; TGI [51]: > 100 µM; TGI [53]: > 100 µM; TGI [54]: > 100 µM; TGI [5]: > 100 µM; TGI [7]: > 100 µM; TGI [56]: 64.2 µM; TGI [8]: > 100 µM; TGI [9]: > 100 µM; TGI [10]: > 100 µM; TGI [11]: > 100 µM; TGI [12]: > 100 µM; TGI [13]: > 100 µM; TGI [14]: > 100 µM; TGI [15]: > 100 µM; TGI [16]: > 100 µM; TGI [17]: > 100 µM; TGI [18]: > 100 µM; TGI [19]: > 100 µM; TGI [20]: > 100 µM; TGI [21]: > 100 µM; TGI [22]: > 100 µM; TGI [23]: > 100 µM; TGI [24]: > 100 µM; TGI [25]: > 100 µM; TGI [26]: > 100 µM; TGI [27]: > 100 µM; TGI [28]: > 100 µM; TGI [29]: > 100 µM; TGI [30]: > 100 µM; TGI [31]: > 100 µM; TGI [32]: > 100 µM; TGI [33]: > 100 µM; TGI [34]: > 100 µM; TGI [35]: > 100 µM; TGI [36]: > 100 µM; TGI [37]: > 100 µM; TGI [38]: > 100 µM; TGI [64]: > 100 µM; TGI [39]: > 100 µM; TGI [40]: > 100 µM; TGI [41]: > 100 µM; TGI [65]: > 100 µM; TGI [42]: > 100 µM; TGI [43]: > 100 µM; TGI [67]: > 100 µM; TGI [45]: > 100 µM; TGI [46]: > 100 µM; TGI [48]: > 100 µM; TGI [49]: > 100 µM
